Laboratory results taken from paper PMC12040169 (PLOS Biology, 2025).

Assay: in vitro
Conditions: human, hela cells, % viability

Compound | viability at 28.5 h, 10 µM
Cn1cc(NC(=O)N2CCCN(Cc3ccccn3)CC2)nn1 [CBK307034] | 86.8%
Cc1nc(N2CCCCC2)ncc1C(=O)NCCc1cc[nH]n1 [CBK307035] | 113%
CCCN1CC(NS(=O)(=O)c2cc(OC)c(C)cc2OC)CC1=O (stereo not shown) [CBK307036] | 75.4%
N[C@H]1C[C@H](c2nnc(Cn3ncc(N4CCCC4)cc3=O)n2C2CC2)C1 [CBK307039] | 107%
CCOC(=O)N1CCN(C2CCCN(Cc3cnc(N(C)C)s3)C2)CC1 (stereo not shown) [CBK307041] | 93.7%
Nc1nonc1-n1cc(CN2CCCCC2)nn1 [CBK307044] | 97.1%
COCCn1cnnc1C(C)NC(=O)Cn1cc2ccccc2n1 (stereo not shown) [CBK307047] | 92.1%
CC(C)Cc1cc(CNC(=O)Nc2cc(-c3cccnc3)nn2C)no1 [CBK307048] | 84.9%
CC(C)CC(NC(=O)Cc1cccc(O)c1)c1ncnn1C (stereo not shown) [CBK307050] | 105%
CC(CN1CCOCC1)NS(=O)(=O)c1cccc(C(=O)N2CCCC2)c1 (stereo not shown) [CBK307053] | 107%
Cc1nc2ncc(-c3ccccc3C(=O)N(C(C)C)C(C)C)cn2n1 [CBK307054] | 84.1%
COCCN(Cc1cnn(C)c1)C(=O)c1ccc2oc(C)cc2c1 [CBK307059] | 96.6%
CN(CC1CCCC1)c1nccc(N2CCN[C@H]3CS(=O)(=O)C[C@H]32)n1 [CBK307060] | 83.9%
COCCn1c(CO)nnc1[C@H]1C[C@@H](NC(=O)c2ccc(C)s2)C1 [CBK307063] | 73.9%
Cc1nc(C(C)NC(=O)CCc2cnn(C)c2)c(C)s1 (stereo not shown) [CBK307064] | 92.6%
CCNc1ncc(C(=O)NC(CCn2ccnc2)c2ccccc2)cn1 (stereo not shown) [CBK307066] | 110%
Cc1nc2cc(OCc3nc(C(=O)NCC(O)CO)co3)ccc2s1 (stereo not shown) [CBK307067] | 102%
Cc1ccsc1C(=O)N1CCC(n2cc(C(C)(C)O)nn2)CC1 [CBK307069] | 110%
COc1cc(OC)c(CN2CC3(C)CC2CC(C)(C)C3)cc1Br (stereo not shown) [CBK307074] | 86.4%
O=C(c1ccc2c(c1)ncn2CCO)N1CCC(c2ccccc2F)C1 (stereo not shown) [CBK307075] | 88.5%
CSc1nccc(N2CCC(NCCCn3ccnn3)CC2)n1 [CBK307076] | 92.7%
CCc1ncc(C(=O)N(Cc2ccccn2)CC2CCCO2)cn1 (stereo not shown) [CBK307077] | 95.1%
CCc1c(C)cc(C(=O)N(C)C(CC)c2ccccn2)c(=O)n1C (stereo not shown) [CBK307078] | 95.6%

Compound | viability at 28.5 h, 10 µM
Cn1cc(CNC(=O)Nc2cc(C(=O)N3CCOCC3)ccc2Cl)cn1 [CBK307080] | 83.4%
CN(Cc1ccncn1)C(=O)c1cn(CC2CCCO2)nn1 (stereo not shown) [CBK307081] | 108%
Cc1nc2c(c(N(C)C)n1)CCN(C(=O)c1cnn(C(C)C)c1)C2 [CBK307083] | 109%
Cn1nnnc1SCCNC(=O)Nc1ccc(CN2CCOCC2)cc1 [CBK307084] | 97.4%
Cn1nccc1CCNS(=O)(=O)c1cccc(C(=O)N2CCCCC2)c1 [CBK307086] | 89.2%
Cc1nn(CC(=O)N(C)CCCc2nccn2C)c(=O)c2ccccc12 [CBK307087] | 92.2%
CCC(NC(=O)CCc1cc2n(n1)CCNC2)c1cn2cccnc2n1 (stereo not shown) [CBK307090] | 87.1%
CN(C)c1nc(N(C)CC2(CO)CCOCC2)ncc1F [CBK307091] | 110%
CC1(C)CC(NC(=O)c2cc(Cn3ccc4ccccc43)[nH]n2)CCO1 (stereo not shown) [CBK307092] | 87.7%
O=C(N[C@H]1C[C@H](c2nnc(CO)n2C2CC2)C1)c1ccc(Cl)c(F)c1 [CBK307093] | 91.4%
CCCn1cc(CNC(=O)c2cccc(S(=O)(=O)N3CCCC3)c2)cn1 [CBK307095] | 78.5%
Cc1cc(F)ccc1C(=O)NCC1CCN(c2cnn(C)c(=O)c2)C1 (stereo not shown) [CBK307097] | 112%
CC1CCc2c(sc(NC(=O)c3cccs3)c2C(=O)N(C)C)C1 (stereo not shown) [CBK307100] | 90.9%
COc1ccccc1CN(Cc1cccnc1)C(=O)CCn1cnnn1 [CBK307106] | 90.4%
CN(C(=O)C1CCc2nn(C)c(=O)n2C1)C1Cc2ccccc2C1 (stereo not shown) [CBK307108] | 107%
COc1cc2c(cc1-c1cn(CCc3n[nH]c(=O)[nH]3)nn1)CCC2 [CBK307112] | 98.3%
NC1CC(c2cc(NCCCc3nnc4ccccn34)ncn2)C1 (stereo not shown) [CBK307120] | 104%
CCCCC(c1cccnc1)N(C)C(=O)c1cnc(C)c(C)c1 (stereo not shown) [CBK307121] | 103%
CCCn1ncc(C(=O)N2CCN(CC3CCCN(C)C3)CC2)c1C (stereo not shown) [CBK307122] | 89.1%
CN1CCCN(c2cnn(Cc3ccc(Cl)s3)c(=O)c2)CC1 [CBK307123] | 90.8%
Cn1ccnc1CCC1CCCCN1C(=O)NCc1cccc(F)c1 (stereo not shown) [CBK307124] | 93.5%
CNC(=O)CN(C)Cc1c(C(=O)N2CCOCC2)nc2c(C)cccn12 [CBK307128] | 114%
CC(=O)N1CCc2nc(C)nc(NCCn3cccc3)c2CC1 [CBK307130] | 83.7%

Compound | viability at 28.5 h, 10 µM
Fc1cnc(N2CCCC3(CCOC3)C2)nc1N1CCOCC1 (stereo not shown) [CBK307131] | 84.5%
CCn1c(CC2CCN(C(=O)c3ccc(C)c(C)c3)CC2)nn(C)c1=O [CBK307133] | 87.8%
Cc1ccc2c(c1)c(C(=O)N1CCn3nc(CO)cc3C1)nn2C [CBK307134] | 104%
CCN1CC2(CCC1=O)CCN(Cc1nnc(-c3cccnc3)o1)CC2 [CBK307137] | 92.6%
CCOc1cc2c(cc1CN1CCN(Cc3noc(C)n3)CC1)CCC2 [CBK307138] | 83.1%
CCOC(=O)c1cn(CC)c2cc(F)c(OCC)cc2c1=O [CBK307139] | 87.8%
CCOC(=O)c1cn(CC)c2cc(N3CCSCC3)c(F)cc2c1=O [CBK307143] | 89.8%
CCn1cc(C(=O)NN)c(=O)c2cc(F)c(N3CCCC3)cc21 [CBK307146] | 82.9%
CC(C)CC(NC(=O)c1cccnc1)c1nnc2n1CCNCC2 (stereo not shown) [CBK307149] | 89.2%
O=C(Nc1ccnn1Cc1cccs1)N1Cc2cnn(CCO)c2C1 [CBK307150] | 89.7%
CN(Cc1nc2c(s1)CCCC2)C(=O)COc1ncnc2ccccc12 [CBK307151] | 90.7%
COc1cccc2ncn(CCCc3c(C)n[nH]c3C)c(=O)c12 [CBK307153] | 82.9%
Cn1nc(CO)c2c1CCN(CC(=O)Nc1nc(C(C)(C)C)cs1)C2 [CBK307161] | 85.7%
Cn1c(N2CC[C@H](O)C2)nc2cc(C(=O)NCC3CC3)ccc21 [CBK307164] | 92.1%
CC(=O)Nc1ccc(F)c(NC(=O)NCCN2CCCOC2=O)c1 [CBK307166] | 92.8%
CCOC(=O)c1cn(CC)c2cc(N3CCCC3)c(F)cc2c1=O [CBK307169] | 101%
CCn1cc(C(=O)N2CCCC2c2nccs2)c(=O)c2ccc(C)nc21 (stereo not shown) [CBK307171] | 86.4%
CC(C)(C)NC(=O)c1nn2c(c1Br)NC(c1cccs1)CC2C(F)(F)F (stereo not shown) [CBK307175] | 84.9%
CC(C)OC(=O)c1cc2n(n1)C(C(F)(F)F)CC(c1cccs1)N2 (stereo not shown) [CBK307176] | 87.6%
CCn1nc(C(C)C)cc1C(=O)N1CC2(CCNCC2)CC1C(=O)O (stereo not shown) [CBK307179] | 90.9%
O=C(c1nn2c(c1Br)NC(c1cccs1)CC2C(F)(F)F)N1CCCC1 (stereo not shown) [CBK307180] | 88.7%
Cc1cccc(=O)n1CCCn1cnc2nccnc2c1=O [CBK307186] | 116%
CN1CCC(OCCCn2ccnc2-c2ccccc2C(=O)O)CC1 [CBK307188] | 87%

Compound | viability at 28.5 h, 10 µM
Cc1cc(OCC(=O)N(C)C)c2c3c(c(=O)oc2c1)CCCC3 [CBK307189] | 96.3%
Cc1nn(C)c2nc(NCc3ccc(C(=O)N4CCCC4)cc3)sc12 [CBK307190] | 88.6%
Cc1cc(C)c(CNC(=O)N(C)C(C)c2ccncn2)cn1 (stereo not shown) [CBK307192] | 93.4%
COc1ccc2c(c1)cc(C(=O)NCc1cncn1CC(C)C)n2C [CBK307193] | 89.3%
COC(=O)c1ccc(NC(=O)N2CCCCC2CCn2ccnc2)cc1 (stereo not shown) [CBK307195] | 86.8%
COc1ccc2c(c1)cc(C(=O)N(C)CCCn1nc(C)cc1C)n2C [CBK307196] | 81.4%
CC(NC(=O)N(C)Cc1ccc2ccccc2n1)c1nncn1C(C)C (stereo not shown) [CBK307197] | 92.9%
CSc1nc(C(=O)NC2CCCN(c3ncccn3)C2)cs1 (stereo not shown) [CBK307198] | 98.7%
CN(C)c1ccc(-c2nc(C(F)(F)F)nn2C)cn1 [CBK307202] | 87.1%
CN1CCN(c2cnn(CCCOc3ccccc3)c(=O)c2)CC1 [CBK307203] | 100%
COc1cccc(CN2CCCC(NC(=O)c3cn4ccsc4n3)C2)c1 (stereo not shown) [CBK307204] | 81.1%
Cn1nc2n(c1=O)CC(C(=O)NCCN1CCCc3ccccc31)CC2 (stereo not shown) [CBK307206] | 93.5%
CCCc1nnc2sc(C3CCC(=O)N(CC(C)C)C3)nn12 (stereo not shown) [CBK307207] | 95.6%
COc1cccc2ncn(CCCc3nc(C)c(C)s3)c(=O)c12 [CBK307208] | 95.2%
CCCCSc1nc(N)cc(N2CCCN(C(=O)C3CCCO3)CC2)n1 (stereo not shown) [CBK307209] | 86.8%
Cn1ccnc1C(NC(=O)N1CCOc2ccc(Cl)cc2C1)C1CC1 (stereo not shown) [CBK307212] | 91%
CCCCC(c1cccnc1)N(C)C(=O)c1cc(CC)[nH]c(=O)c1 (stereo not shown) [CBK307216] | 107%
CCn1c(CC2CCN(C(=O)CCN3CCCCO3)CC2)nn(C)c1=O [CBK307217] | 95.4%
CN(CCN1CCCCC1=O)c1nccc(CCC(F)(F)F)n1 [CBK307218] | 106%
CC(=O)COc1cc(OCC(C)=O)c2c3c(c(=O)oc2c1)CCC3 [CBK307219] | 85.1%
COc1ccc(CN2CCOCC2CC(=O)O)cc1Cn1cncn1 (stereo not shown) [CBK307220] | 92.7%
CCc1noc(C)c1C(=O)N1CC[C@@H](CNC(=O)N2CCCC2)[C@H](O)C1 [CBK307222] | 88.3%
